Experimental data: US6878722B2, “Substituted cycloalkyl P1′ hepatitis C virus inhibitors” (Bristol-Myers Squibb Company, priority 2002, dated 2005)
Read-outs that look alike come from different tables or passages of the source.

Legend:
[1] = tested on: HCV replicon in Huh7 cells; assay: HCV replicon cell-based assay (FRET); details: HCV replicon, read-out: EC50 range
Outline: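 Huh7 cells stably carrying a genotype 1b HCV replicon (IRES-neo-EMCV-IRES-NS3-NS5B) were treated with compound for 4 days at 37 °C in 0.5% DMSO final. Lysates containing 10 μM FRET peptide RET S1 were read kinetically at 340/490 nm to give NS3 protease activity, from which EC50 was derived.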

[2] = biological target: T1, HCV NS3/4A protease complex (BMS strain, genotype 1a) (Hepatitis C virus genotype 1a, UniProt P27958, C1454S); assay: Recombinant HCV NS3/4A protease complex FRET peptide assay, BMS strain; type: biochemical; details: NS3/4A BMS Strain
T1 construct: DNA encoding the recombinant HCV NS3/4A protease complex (amino acids 1027 to 1711) for these strains; inferred from the pET21b vector and Ni-NTA purification; made in house; host or cells: Escherichia coli BL21 (DE3), pET21b
Outline: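 Recombinant NS3/4A complex (aa 1027–1711) with C-terminal three-lysine tail, C1711G and C1454S, expressed in E. coli BL21(DE3) and purified by Ni-NTA then Superdex-S200. Inhibition of the complex from each strain measured in vitro by FRET peptide cleavage.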

T1 sequence (P27958 1658-1714, looked up, stated change not applied): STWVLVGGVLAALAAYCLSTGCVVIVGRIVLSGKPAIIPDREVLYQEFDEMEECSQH
T1 sequence (P27958 1027-1657, looked up, stated change not applied): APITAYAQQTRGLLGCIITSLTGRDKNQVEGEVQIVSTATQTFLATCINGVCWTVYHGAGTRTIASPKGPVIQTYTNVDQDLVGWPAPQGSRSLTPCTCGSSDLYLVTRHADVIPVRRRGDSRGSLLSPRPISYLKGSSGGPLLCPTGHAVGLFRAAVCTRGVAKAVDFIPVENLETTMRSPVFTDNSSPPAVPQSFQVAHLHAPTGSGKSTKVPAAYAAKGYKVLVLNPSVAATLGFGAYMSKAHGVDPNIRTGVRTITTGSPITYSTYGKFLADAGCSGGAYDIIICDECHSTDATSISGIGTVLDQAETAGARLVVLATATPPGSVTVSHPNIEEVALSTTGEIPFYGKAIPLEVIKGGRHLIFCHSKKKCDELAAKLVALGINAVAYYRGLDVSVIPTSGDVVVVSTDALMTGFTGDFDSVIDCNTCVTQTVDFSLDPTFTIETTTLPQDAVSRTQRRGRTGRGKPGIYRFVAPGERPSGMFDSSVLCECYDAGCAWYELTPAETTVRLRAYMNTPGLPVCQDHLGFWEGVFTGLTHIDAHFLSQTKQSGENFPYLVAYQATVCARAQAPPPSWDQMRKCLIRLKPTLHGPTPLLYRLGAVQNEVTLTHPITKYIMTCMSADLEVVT

Compound | EC50 ([1]; Hepatitis C virus, Huh-7) [nM] | IC50 ([2]; IC50 range) [nM] | EC50 [1] [nM] | IC50 ([2]; read-out: IC50 range) [nM]
C=CC1C[C@]1(NC(=O)[C@@H]1C[C@@H](Oc2cc(-c3ccccc3)nc3cc(OC)ccc23)CN1C(=O)[C@@H](NC(=O)OC(C)(C)C)C(C)(C)C)C(=O)NS(=O)(=O)C1(C(=O)NCCC)CC1 (stereo in doubt) [Compound 9, (1-{4-(7-Methoxy-2-phenylquinolin-4-yloxy)-2-[1-(1-propylcarbamoyl-cyclopropanesulfonylaminocarbonyl)-2-vinylcyclopropylcarbamoyl]pyrrolidine-1-carbonyl}-2,2-dimethyl-propyl)carbamic acid tert-butyl ester] | < 50 | < 50 | – | –
C=C[C@@H]1C[C@]1(NC(=O)C1C[C@@H](Oc2cc(-c3ccccc3)nc3cc(OC)ccc23)CN1C(=O)[C@@H](NC(=O)[C@@H](OC)c1ccccc1)C(C)(C)C)C(=O)NS(=O)(=O)C1(CC2CC2)CC1 (stereo partly drawn) [Compound 119] | 50 to 500 | < 50 | – | –
C=C[C@@H]1C[C@]1(NC(=O)[C@@H]1C[C@@H](Oc2cc(-c3ccccc3)nc3cc(OC)ccc23)CN1C(=O)[C@@H](NC(=O)OC1CCOCC1)C(C)(C)C)C(=O)NS(=O)(=O)C1(Cc2ccccc2)CC1 [Compound 56, {1-[2-[1-(1-Benzyl-cyclopropanesulfonylaminocarbonyl)-2-vinyl-cyclopropylcarbamoyl]-4-(7-methoxy-2-phenyl-quinolin-4-yloxy)-pyrrolidine-1-carbonyl]-2,2-dimethyl-propyl}-carbamic acid tetrahydro-pyran-4-yl Ester] | 50 to 500 | < 50 | – | –
C=C[C@@H]1C[C@]1(NC(=O)[C@@H]1C[C@@H](Oc2cc(-c3ccccc3)nc3cc(OC)ccc23)CN1C(=O)[C@@H](NC(=O)OC(C)(C)C)C(C)(C)C)C(=O)NS(=O)(=O)C1(COC(C)C)CC1 [Compound 37, {1-[2-[1-(1-Isopropoxymethyl-cyclopropanesulfonylaminocarbonyl)-2-vinyl-cyclopropylcarbamoyl]-4-(7-methoxy-2-phenyl-quinolin-4-yloxy)-pyrrolidine-1-carbonyl]-2,2-dimethyl-propyl}-1-carbamic acid tert-butyl ester] | < 50 | < 50 | – | –
C=C[C@@H]1C[C@]1(NC(=O)[C@@H]1C[C@@H](Oc2ccnc3cc(Cl)ccc23)CN1C(=O)[C@@H](NC(=O)OC1CCCC1)C(C)(C)C)C(=O)NS(=O)(=O)C1(CCC)CC1 [Compound 64, (1-{4-(7-Chloro-quinolin-4-yloxy)-2-[1-(1-propyl-cyclopropanesulfonylaminocarbonyl)-2-vinyl-cyclopropylcarbamoyl]-pyrrolidine-1-carbonyl}-2,2-dimethyl-propyl)-carbamic acid cyclopentyl ester] | 50 to 500 | < 50 | – | –
C=CC1C[C@]1(NC(=O)[C@@H]1C[C@@H](Oc2cc(-c3ccccc3)nc3cc(OC)ccc23)CN1C(=O)[C@@H](NC(=O)CC1CC1)C(C)(C)C)C(=O)NS(=O)(=O)C1(C)CC1 (stereo in doubt) [Compound 13, 1-[2-(2-Cyclopropyl-acetylamino)-3,3-dimethyl-butyryl]-4-(7-methoxy-2-phenylquinolin-4-yloxy)-pyrrolidine-2-carboxylic acid [1-(1-methylcyclopropanesulfonylaminocarbonyl)-2-vinylcyclopropyl]amide] | < 50 | < 50 | – | –
C=C[C@@H]1C[C@]1(NC(=O)[C@@H]1C[C@@H](Oc2cc(-c3ccccc3)nc3cc(OC)ccc23)CN1C(=O)[C@@H](NC(=O)OC(C)(C)C)C(C)(C)C)C(=O)NS(=O)(=O)C1([Si](C)(C)C)CC1 [Compound 27] | < 50 | < 50 | – | –
C=CC1C[C@]1(NC(=O)[C@@H]1C[C@@H](Oc2cc(-c3ccccc3)nc3cc(OC)ccc23)CN1C(=O)[C@@H](NC(=O)OC(C)(C)C)C(C)(C)C)C(=O)NS(=O)(=O)C1(Cc2ccccc2)CC1 (stereo in doubt) [Compound 5, {1-[2-[1-(1-Benzylcyclopropanesulfonyl-aminocarbonyl)-2-vinyl-cyclopropylcarbamoyl]-4-(7-methoxy-2-phenylquinolin-4-yloxy)-pyrrolidine-1-carbonyl]-2,2-dimethylpropyl}-carbamic acid tert-butyl ester] | < 50 | < 50 | – | –
C=CCCCCCCCCC1(S(=O)(=O)NC(=O)C2(NC(=O)C3CC(Oc4cc(-c5ccccc5)nc5cc(OC)ccc45)CN3C(=O)C(NC(=O)OC(C)(C)C)C(C)(C)C)CC2C=C)CC1 (stereo not drawn) [Compound 33] | – | – | 50 to 500 | < 50
C=C[C@@H]1C[C@]1(NC(=O)[C@@H]1C[C@@H](Oc2cc(-c3ccccc3)nc3cc(OC)ccc23)CN1C(=O)[C@@H](NC(=O)OC(C)(C)C)C(C)(C)C)C(=O)NS(=O)(=O)C1(Cc2ccncc2)CC1 [Compound 47] | < 50 | < 50 | – | –
C=CCCCCCCCC1(S(=O)(=O)NC(=O)C2(NC(=O)C3CC(Oc4cc(-c5ccccc5)nc5cc(OC)ccc45)CN3C(=O)C(NC(=O)OC(C)(C)C)C(C)(C)C)CC2C=C)CC1 (stereo not drawn) [Compound 34, (1-{4-(7-Methoxy-2-phenyl-quinolin-4-yloxy)-2-[1-(1-non-8-enyl-cyclopropanesulfonylaminocarbonyl)-2-vinyl-cyclopropylcarbamoyl]-1-pyrrolidine-1-carbonyl}-2,2-dimethyl-propyl)-carbamic acid tert-butyl ester] | – | – | < 50 | < 50
C=C[C@@H]1C[C@]1(NC(=O)[C@@H]1C[C@@H](Oc2cc(-c3ccccc3)nc3cc(OC)ccc23)CN1C(=O)[C@@H](NC(=O)OC(C)(C)C)C(C)(C)C)C(=O)NS(=O)(=O)C1(CCOCc2ccccc2)CC1 [Compound 36, {1-[2-{1-[1-(2-Benzyloxy-ethyl)-cyclopropanesulfonylaminocarbonyl]-2-vinyl-cyclopropylcarbamoyl}-4-(7-methoxy-2-phenyl-quinolin-4-yloxy)-pyrrolidine-1-carbonyl]-2,2-dimethyl-propyl}-carbamic acid tert-butyl ester] | < 50 | < 50 | – | –
C=C[C@@H]1C[C@]1(NC(=O)[C@@H]1C[C@@H](Oc2cc(-c3ccccc3)nc3cc(OC)ccc23)CN1C(=O)[C@@H](NC(=O)Oc1ccc(OC)cc1)C(C)(C)C)C(=O)NS(=O)(=O)C1(Cc2ccccc2)CC1 [Compound 103] | 50 to 500 | 50 to 500 | – | –
C=C[C@@H]1C[C@]1(NC(=O)[C@@H]1C[C@@H](Oc2cc(-c3ccccc3)nc3cc(OC)ccc23)CN1C(=O)[C@@H](NC(=O)NC(C)(C)C)C(C)(C)C)C(=O)NS(=O)(=O)C1(Cc2ccccc2)CC1 [Compound 62, 1-[2-(3-tert-Butyl-ureido)-3,3-dimethyl-butyryl]-4-(7-methoxy-2-phenyl-quinolin-4-yloxy)-pyrrolidine-2-carboxylic acid [1-(1-benzylcyclopropanesulfonylaminocarbonyl)-2-vinyl-cyclopropyl]-amide] | 50 to 500 | < 50 | – | –
C=C[C@@H]1C[C@]1(NC(=O)[C@@H]1C[C@@H](Oc2cc(-c3ccccc3)nc3cc(OC)ccc23)CN1C(=O)[C@@H](NC(=O)OC(C)(C)C)C(C)(C)C)C(=O)NS(=O)(=O)C1(Cc2ccc(OC)cc2)CC1 [Compound 42, {1-[2-{1-[1-(4-Methoxy-benzyl)-cyclopropanesulfonylaminocarbonyl]-2-vinyl-cyclopropylcarbamoyl}-4-(7-methoxy-2-phenyl-quinolin-4-yloxy)-pyrrolidine-1-carbonyl]-2,2-dimethyl-propyl}-carbamic acid tert-butyl ester] | 50 to 500 | 50 to 500 | – | –
C=CC1C[C@]1(NC(=O)[C@@H]1C[C@@H](Oc2cc(-c3ccccc3)nc3cc(OC)ccc23)CN1C(=O)[C@@H](NC(=O)OC(C)(C)C)C(C)(C)C)C(=O)NS(=O)(=O)C1(C(=O)Nc2c(C)noc2C)CC1 (stereo partly drawn) [Compound 10, {1-[2-{1-[1-(3,5-Dimethylisoxazol-4-ylcarbamoyl)cyclopropanesul-fonylaminocarbonyl]-2-vinylcyclopropylcarbamoyl}-4-(7-methoxy-2-phenylquinolin-4-yloxy)pyrrolidine-1-carbon-yl]-2,2-dimethylpropyl}carbamicacid tert-butyl ester] | < 50 | < 50 | – | –
C=CC1C[C@]1(NC(=O)[C@@H]1C[C@@H](Oc2cc(-c3ccccc3)nc3cc(OC)ccc23)CN1C(=O)[C@@H](NC(=O)OC(C)(C)C)C(C)(C)C)C(=O)NS(=O)(=O)C1(C(=O)c2ccccc2)CC1 (stereo in doubt) [Compound 4, {1-[2-[1-(1-Benzoylcyclopropanesulfonyl-aminocarbonyl)-2-vinyl-cyclopropylcarbamoyl]-4-(7-methoxy-2-phenylquinolin-4-yloxy)-pyrrolidine-1-carbonyl]-2,2-dimethylpropyl}-carbamic acid tert-butyl ester] | 50 to 500 | 50 to 500 | – | –
C=CCC1(S(=O)(=O)NC(=O)C2(NC(=O)[C@@H]3C[C@@H](Oc4cc(-c5ccccc5)nc5cc(OC)ccc45)CN3C(=O)[C@@H](NC(=O)OC(C)(C)C)C(C)(C)C)CC2)CC1 [Compound 75, {1-[2-[1-(1-Allyl-cyclopropanesulfonylaminocarbonyl)-cyclopropylcarbamoyl]-4-(7-methoxy-2-phenyl-quinolin-4-yloxy)-pyrrolidine-1-carbonyl]-2,2-dimethyl-propyl}-carbamic acid tert-butyl ester] | 500 to 5000 | < 50 | – | –
